Numbers after ± are expanded uncertainties.
How the values were obtained:
[1] = xn = mol fraction of the nth substance listed; details: 298.15 K, 101 kPa, Liquid, Vibrating tube method
[2] = excess molar enthalpy (molar enthalpy of mixing); xn = mol fraction of the nth substance listed; details: 298.15 K, 101 kPa, Liquid

BrCCBr [1,2-dibromoethane] + CCCC(=O)OCC
Details	excess molar enthalpy [kcal/mol]	mass density [kg/m3]
[1], x2 = 0.08	–	2015.53 ± 1.4
[1], x2 = 0.1235	–	1937.68 ± 1.5
[1], x2 = 0.1689	–	1859.7 ± 1.6
[1], x2 = 0.2131	–	1787.18 ± 1.7
[1], x2 = 0.311	–	1637.22 ± 1.9
[1], x2 = 0.3652	–	1559.91 ± 2
[1], x2 = 0.424	–	1480.28 ± 2.1
[1], x2 = 0.4807	–	1407.25 ± 2.1
[1], x2 = 0.5444	–	1329.31 ± 2.2
[1], x2 = 0.6754	–	1181.51 ± 2.3
[1], x2 = 0.7549	–	1098.99 ± 2.3
[1], x2 = 0.8227	–	1032.55 ± 2.3
[1], x2 = 0.9026	–	958.45 ± 2.3
[2], x2 = 0.0385	0.005 ± 0.000454	–
[2], x2 = 0.0839	0.00753 ± 0.000478	–
[2], x2 = 0.1324	0.00841 ± 0.000502	–
[2], x2 = 0.1841	0.00779 ± 0.000502	–
[2], x2 = 0.2355	0.00421 ± 0.00043	–
[2], x2 = 0.2844	-0.0011 ± 0.000382	–
[2], x2 = 0.3336	-0.00743 ± 0.000478	–
[2], x2 = 0.3803	-0.0131 ± 0.000598	–
[2], x2 = 0.4245	-0.0174 ± 0.000693	–
[2], x2 = 0.4313	-0.0181 ± 0.000693	–
[2], x2 = 0.458	-0.0205 ± 0.000741	–
[2], x2 = 0.5024	-0.0217 ± 0.000789	–
[2], x2 = 0.5565	-0.023 ± 0.000813	–
[2], x2 = 0.6234	-0.0229 ± 0.000813	–
[2], x2 = 0.6941	-0.0215 ± 0.000789	–
[2], x2 = 0.7723	-0.0185 ± 0.000717	–
[2], x2 = 0.851	-0.0141 ± 0.000621	–
[2], x2 = 0.9264	-0.00803 ± 0.000502	–

BrCCBr [1,2-dibromoethane] + CCOC(=O)CC
Details	excess molar enthalpy [kcal/mol]	mass density [kg/m3]
[1], x2 = 0.0479	–	2086.59 ± 1.4
[1], x2 = 0.0959	–	2007.68 ± 1.5
[1], x2 = 0.1904	–	1859.96 ± 1.8
[1], x2 = 0.2852	–	1720.53 ± 2
[1], x2 = 0.3448	–	1636.9 ± 2.1
[1], x2 = 0.4532	–	1492.57 ± 2.3
[1], x2 = 0.5156	–	1413.6 ± 2.3
[1], x2 = 0.5836	–	1330.59 ± 2.4
[1], x2 = 0.6423	–	1261.58 ± 2.4
[1], x2 = 0.7044	–	1190.86 ± 2.4
[1], x2 = 0.7717	–	1116.79 ± 2.4
[1], x2 = 0.8366	–	1047.86 ± 2.4
[1], x2 = 0.9155	–	967.12 ± 2.4
[2], x2 = 0.0408	0.00294 ± 0.000406	–
[2], x2 = 0.0876	0.00552 ± 0.000454	–
[2], x2 = 0.1399	0.00636 ± 0.000478	–
[2], x2 = 0.1925	0.00495 ± 0.000454	–
[2], x2 = 0.2463	0.00124 ± 0.000382	–
[2], x2 = 0.3001	-0.00495 ± 0.000454	–
[2], x2 = 0.3515	-0.0114 ± 0.00055	–
[2], x2 = 0.3996	-0.0181 ± 0.000693	–
[2], x2 = 0.4154	-0.0205 ± 0.000765	–
[2], x2 = 0.4446	-0.0241 ± 0.000837	–
[2], x2 = 0.4644	-0.0276 ± 0.000908	–
[2], x2 = 0.486	-0.0301 ± 0.00098	–
[2], x2 = 0.522	-0.0345 ± 0.00108	–
[2], x2 = 0.5865	-0.0383 ± 0.00117	–
[2], x2 = 0.6595	-0.0372 ± 0.00115	–
[2], x2 = 0.7397	-0.0331 ± 0.00105	–
[2], x2 = 0.827	-0.0259 ± 0.000884	–
[2], x2 = 0.9159	-0.0163 ± 0.000669	–

BrCCBr [1,2-dibromoethane] + CCOC(C)=O
Details	excess molar enthalpy [kcal/mol]	mass density [kg/m3]
[1], x2 = 0.0526	–	2091.79 ± 1.4
[1], x2 = 0.1032	–	2019.48 ± 1.6
[1], x2 = 0.1562	–	1945.11 ± 1.7
[1], x2 = 0.2107	–	1869.55 ± 1.8
[1], x2 = 0.2686	–	1790.65 ± 2
[1], x2 = 0.4371	–	1568.65 ± 2.3
[1], x2 = 0.4987	–	1490.07 ± 2.4
[1], x2 = 0.6182	–	1341.18 ± 2.5
[1], x2 = 0.6799	–	1266.02 ± 2.5
[1], x2 = 0.7399	–	1194.16 ± 2.5
[1], x2 = 0.8065	–	1115.57 ± 2.5
[1], x2 = 0.8705	–	1041.22 ± 2.5
[1], x2 = 0.9341	–	968.46 ± 2.4
[2], x2 = 0.0529	0.00619 ± 0.000478	–
[2], x2 = 0.1142	0.00951 ± 0.000526	–
[2], x2 = 0.1754	0.0111 ± 0.00055	–
[2], x2 = 0.2376	0.0103 ± 0.000526	–
[2], x2 = 0.2976	0.00906 ± 0.000502	–
[2], x2 = 0.3548	0.00643 ± 0.000478	–
[2], x2 = 0.4086	0.0028 ± 0.00043	–
[2], x2 = 0.4579	-0.00112 ± 0.000382	–
[2], x2 = 0.5045	-0.00509 ± 0.000454	–
[2], x2 = 0.536	-0.00822 ± 0.000502	–
[2], x2 = 0.5453	-0.00877 ± 0.000502	–
[2], x2 = 0.5935	-0.0133 ± 0.000598	–
[2], x2 = 0.6556	-0.0167 ± 0.000669	–
[2], x2 = 0.7113	-0.0176 ± 0.000693	–
[2], x2 = 0.7914	-0.0161 ± 0.000669	–
[2], x2 = 0.8635	-0.0119 ± 0.000574	–
[2], x2 = 0.9367	-0.00602 ± 0.000478	–

BrCCBr [1,2-dibromoethane] + CCOC=O
Details	excess molar enthalpy [kcal/mol]	mass density [kg/m3]
[1], x2 = 0.062	–	2094.82 ± 1.5
[1], x2 = 0.1228	–	2022.36 ± 1.6
[1], x2 = 0.1867	–	1945.54 ± 1.8
[1], x2 = 0.2494	–	1869.83 ± 2
[1], x2 = 0.3088	–	1797.46 ± 2.1
[1], x2 = 0.366	–	1727.27 ± 2.3
[1], x2 = 0.4251	–	1654.13 ± 2.4
[1], x2 = 0.4893	–	1574.29 ± 2.5
[1], x2 = 0.5444	–	1505.3 ± 2.5
[1], x2 = 0.6044	–	1429.44 ± 2.6
[1], x2 = 0.6588	–	1360.3 ± 2.6
[1], x2 = 0.7175	–	1285.15 ± 2.6
[1], x2 = 0.8304	–	1138.86 ± 2.6
[1], x2 = 0.8871	–	1064.61 ± 2.5
[1], x2 = 0.9405	–	994.23 ± 2.5
[2], x2 = 0.0568	0.0286 ± 0.000932	–
[2], x2 = 0.1289	0.0522 ± 0.00151	–
[2], x2 = 0.1965	0.0704 ± 0.00194	–
[2], x2 = 0.2654	0.0861 ± 0.00232	–
[2], x2 = 0.3304	0.0957 ± 0.00263	–
[2], x2 = 0.3922	0.0993 ± 0.00263	–
[2], x2 = 0.4464	0.0988 ± 0.00263	–
[2], x2 = 0.497	0.0966 ± 0.00263	–
[2], x2 = 0.5357	0.0939 ± 0.00263	–
[2], x2 = 0.5433	0.0896 ± 0.00239	–
[2], x2 = 0.5813	0.0887 ± 0.00239	–
[2], x2 = 0.5831	0.0816 ± 0.00222	–
[2], x2 = 0.6341	0.0816 ± 0.00222	–
[2], x2 = 0.6895	0.0722 ± 0.00198	–
[2], x2 = 0.7525	0.0596 ± 0.00167	–
[2], x2 = 0.8186	0.0457 ± 0.00134	–
[2], x2 = 0.8841	0.0318 ± 0.00103	–
[2], x2 = 0.9442	0.016 ± 0.000669	–
